# Measurements taken from patent US9217014B2, “Antifungal agents and uses thereof” (Cidara Therapeutics, Inc., priority 2011, dated 2015).
# Read-outs that look alike come from different tables or passages of the source.
# Tests used:
# C. albicans R303 = assay: mouse candidiasis infection model, IP administration, kidney fungal burden; format: in vivo; settings: for log reduction at 0.5 mg/kg / log reduction at 1.5 mg/kg / log reduction at 4.5 mg/kg / log reduction at 5 mg/kg: Candida albicans, R303, ip, 24 h, read-out: Difference from 24-h control; for Mean log10 CFU/kidneys (±SEM) / Mean log10 CFU/kidneys (±SD): kidneys 24 h after infection; for overall performance in reducing C. albicans CFUs in the kidneys of the mice: conclusion over all runs; for log reduction at 5 mg/kg / Mean log10 CFU/kidneys (±SD): First run, IP 5 mg/kg; for Mean log10 CFU/kidneys (±SD): neutropenic mice
# Protocol: The objective of these studies was to evaluate the efficacy of test compounds in the mouse candidiasis infection model. Amounts of test articles are uncorrected.
# The strain, C. albicans R303 was transferred from frozen storage onto Sabauroud dextrose agar (SDA) plates and grown for ˜24 hr at 35° C. The inoculum was prepared by transferring colonies from the plate to phosphate buffered saline (PBS) and the concentration adjusted to approximately 10^6 CFU/mL with the aid of a spectrophotometer. The stock was diluted 1:9 to prepare the inoculum. Prior to each run the concentration was verified using the dilution plate count method.
# Female CD-1 mice were used in this study. The animals were approximately seven-weeks-old at the start of the study and weighed about 15-30 g.
# Mice were made neutropenic with IP injections of cyclophosphamide (150 mg/kg in 10 mL/kg) at 4 and 1 day before inoculation. Each animal was inoculated with the appropriate concentration by injecting 0.1 mL of inoculum into a tail vein. The test compounds were administered IP at 2 hr after infection.
# In a typical procedure, the kidneys were collected from four mice in control group 1 (untreated) at 2 hr after infection, and from another four mice in control group 2 (untreated) at 24 hr after infection. Kidneys were removed aseptically from each mouse and were combined in a sterile tube. An aliquot (2 mL) of sterile PBS was added to each tube and the contents homogenized with a tissue homogenizer (Polytron 3100). Serial dilutions of the tissue homogenates were conducted and 0.1 mL aliquots were spread on SDA plates and the plates incubated at 35° C. overnight. The CFU/kidneys were determined from colony counts. Data were analyzed using one-way ANOVA with either the Tukey-Kramer Multiple Comparisons Test or Dunnett Test (GraphPad InStat version 3.06, GraphPad Software, San Diego, Calif.).
# The data reported below are the average of four mice. Each run included a separate control and each is tabulated separately.
# [1] = Pharmacokinetics in beagle dogs, intravenous; format: in vivo; settings: for Vd / half-life: dog
# Protocol: The test articles were administered to beagle dogs weighing approximately 6-10 kg. Each test article was dosed at 1.4 mg/kg in aqueous saline (with or without 0.5% Tween) over course of 1-10 minutes. […] The dogs were fasted at least 12 hours prior to each dosing and offered food after the 4-hour blood sample was taken; water was withheld for 1 hour prior to and 4 hours following each dosing event. The dose for each animal was based on its most recent body weight. The test article was injected intravenously via a catheter placed in the cephalic vein as a slow bolus.
# Blood was collected via the jugular vein. All blood samples (˜1 mL each) were collected into K3EDTA tubes. Following blood collection, the samples were immediately inverted several times and were held on wet ice pending centrifugation. The samples were centrifuged within ˜30 minutes of collection under refrigeration (˜5° C. for ˜10 minutes at ˜2000 g) to obtain plasma. The plasma was frozen immediately on dry ice after separation. The plasma samples were stored at approximately −70° C. until analysis.
# Plasma (100 μL) was precipitated with 400 μL of 0.1% formic acid in acetonitrile containing the internal standard (100 ng/mL pneumocandin). The samples were then capped and vortexed for about 30 seconds followed by centrifugation at 14,000 rpm at room temperature for 10 minutes. Following centrifugation 200 μL of supernatant was transferred to plastic autosampler vials containing 200 μL of 0.1% formic acid in water and vortexed. Samples were then analyzed by LCMSMS.
# All pharmacokinetic calculations were performed using WinNonlin version 4.1 (Pharsight Corp) by noncompartmental analysis.
smiles,measurement,setting,value
CCC(C)CC(C)CCCCCCCCC(=O)N[C@H]1C[C@@H](O)C(NCCOCCOCCN)NC(=O)C2[C@@H](O)CCN2C(=O)C([C@H](O)CCN)NC(=O)C([C@H](O)[C@@H](O)c2ccc(O)cc2)NC(=O)C2C[C@@H](O)CC2C(=O)C([C@@H](C)O)NC1=O (stereo partly drawn) [compound 19],log reduction at 0.5 mg/kg,"C. albicans R303; Third run, IP 0.5 mg/kg",2.19
same,log reduction at 1.5 mg/kg,"C. albicans R303; Third run, IP 1.5 mg/kg",3.47
same,log reduction at 4.5 mg/kg,"C. albicans R303; Third run, IP 4.5 mg/kg",4.03
same,Mean log10 CFU/kidneys (±SEM),"C. albicans R303; Third run, IP 0.5 mg/kg",3.01 ± 0.07 log10 CFU/kidneys
same,Mean log10 CFU/kidneys (±SEM),"C. albicans R303; Third run, IP 1.5 mg/kg",1.74 ± 0.18 log10 CFU/kidneys
same,Mean log10 CFU/kidneys (±SEM),"C. albicans R303; Third run, IP 4.5 mg/kg",1.17 ± 0.40 log10 CFU/kidneys
same,overall performance in reducing C. albicans CFUs in the kidneys of the mice,C. albicans R303,performed strongly
CCCCCOc1ccc(-c2ccc(-c3ccc(C(=O)N[C@H]4C[C@@H](O)C(OCCN(C)C)NC(=O)C5[C@@H](O)[C@@H](C)CN5C(=O)C([C@@H](C)O)NC(=O)C([C@H](O)[C@@H](O)c5ccc(O)cc5)NC(=O)C5C[C@@H](O)CN5C(=O)C([C@@H](C)O)NC4=O)cc3)cc2)cc1 (stereo partly drawn) [compound 2],log reduction at 5 mg/kg,C. albicans R303,3.6
same,Mean log10 CFU/kidneys (±SD),C. albicans R303,1.60 ± 0.35 log10 CFU/kidneys
same,overall performance in reducing C. albicans CFUs in the kidneys of the mice,C. albicans R303,performed moderately
CCCCCOc1ccc(-c2ccc(-c3ccc(C(=O)N[C@H]4C[C@@H](O)C(NCCOCCO)NC(=O)C5[C@@H](O)[C@@H](C)CN5C(=O)C([C@@H](C)O)NC(=O)C([C@H](O)[C@@H](O)c5ccc(O)cc5)NC(=O)C5C[C@@H](O)CN5C(=O)C([C@@H](C)O)NC4=O)cc3)cc2)cc1 (stereo partly drawn) [compound 11],log reduction at 0.5 mg/kg,"C. albicans R303; Fourth run, IP 0.5 mg/kg",0.29
same,log reduction at 1.5 mg/kg,"C. albicans R303; Fourth run, IP 1.5 mg/kg",2.13
same,Mean log10 CFU/kidneys (±SEM),"C. albicans R303; Fourth run, IP 0.5 mg/kg",4.82 ± 0.20 log10 CFU/kidneys
same,Mean log10 CFU/kidneys (±SEM),"C. albicans R303; Fourth run, IP 1.5 mg/kg",2.98 ± 0.03 log10 CFU/kidneys
same,overall performance in reducing C. albicans CFUs in the kidneys of the mice,C. albicans R303,performed moderately
CCCCCOc1ccc(-c2ccc(-c3ccc(C(=O)N[C@H]4C[C@@H](O)C(OCCOCCN)NC(=O)C5[C@@H](O)[C@@H](C)CN5C(=O)C([C@@H](C)O)NC(=O)C([C@H](O)[C@@H](O)c5ccc(O)cc5)NC(=O)C5C[C@@H](O)CN5C(=O)C([C@@H](C)O)NC4=O)cc3)cc2)cc1 (stereo partly drawn) [compound 5],Vd,"[1]; beagle, in vivo, iv, 1.4 mg/kg",0.627 ± 0.0139 L/kg
same,half-life,"[1]; beagle, in vivo, iv, 1.4 mg/kg",33.7 ± 3.28 h
same,log reduction at 0.5 mg/kg,"C. albicans R303; Second run, IP 0.5 mg/kg",1.22
same,log reduction at 1.5 mg/kg,"C. albicans R303; Second run, IP 1.5 mg/kg",4.15
same,log reduction at 4.5 mg/kg,"C. albicans R303; Second run, IP 4.5 mg/kg",4.87
same,Mean log10 CFU/kidneys (±SEM),"C. albicans R303; Second run, IP 0.5 mg/kg",3.65 ± 0.10 log10 CFU/kidneys
same,Mean log10 CFU/kidneys (±SEM),"C. albicans R303; Second run, IP 1.5 mg/kg",0.73 ± 0.42 log10 CFU/kidneys
same,Mean log10 CFU/kidneys (±SEM),"C. albicans R303; Second run, IP 4.5 mg/kg",0.00 ± 0.00 log10 CFU/kidneys
same,overall performance in reducing C. albicans CFUs in the kidneys of the mice,C. albicans R303,performed strongly
CCCCCOc1ccc(-c2ccc(-c3ccc(C(=O)N[C@H]4C[C@@H](O)C(OCCN)NC(=O)C5[C@@H](O)[C@@H](C)CN5C(=O)C([C@@H](C)O)NC(=O)C([C@H](O)[C@@H](O)c5ccc(O)cc5)NC(=O)C5C[C@@H](O)CN5C(=O)C([C@@H](C)O)NC4=O)cc3)cc2)cc1 (stereo partly drawn) [compound 4],log reduction at 5 mg/kg,C. albicans R303,4.47
same,log reduction at 0.5 mg/kg,"C. albicans R303; Second run, IP 0.5 mg/kg",1.5
same,log reduction at 4.5 mg/kg,"C. albicans R303; Second run, IP 4.5 mg/kg",4.22
same,Mean log10 CFU/kidneys (±SD),C. albicans R303,0.73 ± 0.85 log10 CFU/kidneys
same,Mean log10 CFU/kidneys (±SEM),"C. albicans R303; Second run, IP 0.5 mg/kg",3.38 ± 0.10 log10 CFU/kidneys
same,Mean log10 CFU/kidneys (±SEM),"C. albicans R303; Second run, IP 1.5 mg/kg",0.65 ± 0.38 log10 CFU/kidneys
same,Mean log10 CFU/kidneys (±SEM),"C. albicans R303; Second run, IP 4.5 mg/kg",0.65 ± 0.38 log10 CFU/kidneys
same,overall performance in reducing C. albicans CFUs in the kidneys of the mice,C. albicans R303,performed strongly
CCC(C)CC(C)CCCCCCCCC(=O)N[C@H]1C[C@@H](O)C(NCCOCCN)NC(=O)C2[C@@H](O)CCN2C(=O)C([C@H](O)CCN)NC(=O)C([C@H](O)[C@@H](O)c2ccc(O)cc2)NC(=O)C2C[C@@H](O)CC2C(=O)C([C@@H](C)O)NC1=O (stereo partly drawn) [compound 20],log reduction at 0.5 mg/kg,"C. albicans R303; Third run, IP 0.5 mg/kg",3.25
same,log reduction at 1.5 mg/kg,"C. albicans R303; Third run, IP 1.5 mg/kg",4.48
same,log reduction at 4.5 mg/kg,"C. albicans R303; Third run, IP 4.5 mg/kg",3.75
same,Mean log10 CFU/kidneys (±SEM),"C. albicans R303; Third run, IP 0.5 mg/kg",1.96 ± 0.18 log10 CFU/kidneys
same,Mean log10 CFU/kidneys (±SEM),"C. albicans R303; Third run, IP 1.5 mg/kg",0.73 ± 0.42 log10 CFU/kidneys
same,Mean log10 CFU/kidneys (±SEM),"C. albicans R303; Third run, IP 4.5 mg/kg",1.45 ± 0.09 log10 CFU/kidneys
same,overall performance in reducing C. albicans CFUs in the kidneys of the mice,C. albicans R303,performed strongly
CCCCCOc1ccc(-c2ccc(-c3ccc(C(=O)N[C@H]4C[C@@H](O)C(OCCNCCN)NC(=O)C5[C@@H](O)[C@@H](C)CN5C(=O)C([C@@H](C)O)NC(=O)C([C@H](O)[C@@H](O)c5ccc(O)cc5)NC(=O)C5C[C@@H](O)CN5C(=O)C([C@@H](C)O)NC4=O)cc3)cc2)cc1 (stereo partly drawn) [compound 7],log reduction at 0.5 mg/kg,"C. albicans R303; Fourth run, IP 0.5 mg/kg",0.78
same,log reduction at 1.5 mg/kg,"C. albicans R303; Fourth run, IP 1.5 mg/kg",3.55
same,Mean log10 CFU/kidneys (±SEM),"C. albicans R303; Fourth run, IP 0.5 mg/kg",4.33 ± 0.17 log10 CFU/kidneys
same,Mean log10 CFU/kidneys (±SEM),"C. albicans R303; Fourth run, IP 1.5 mg/kg",1.55 ± 0.19 log10 CFU/kidneys
same,overall performance in reducing C. albicans CFUs in the kidneys of the mice,C. albicans R303,performed strongly
CCCCCOc1ccc(-c2ccc(-c3ccc(C(=O)N[C@H]4C[C@@H](O)C(NCCOCCOCCOCCOC)NC(=O)C5[C@@H](O)[C@@H](C)CN5C(=O)C([C@@H](C)O)NC(=O)C([C@H](O)[C@@H](O)c5ccc(O)cc5)NC(=O)C5C[C@@H](O)CN5C(=O)C([C@@H](C)O)NC4=O)cc3)cc2)cc1 (stereo partly drawn) [compound 10],log reduction at 0.5 mg/kg,"C. albicans R303; Fourth run, IP 0.5 mg/kg",0.21
same,log reduction at 1.5 mg/kg,"C. albicans R303; Fourth run, IP 1.5 mg/kg",0.01
same,Mean log10 CFU/kidneys (±SEM),"C. albicans R303; Fourth run, IP 0.5 mg/kg",4.89 ± 0.06 log10 CFU/kidneys
same,Mean log10 CFU/kidneys (±SEM),"C. albicans R303; Fourth run, IP 1.5 mg/kg",5.09 ± 0.11 log10 CFU/kidneys
same,overall performance in reducing C. albicans CFUs in the kidneys of the mice,C. albicans R303,performed poorly
CCCCCOc1ccc(-c2ccc(-c3ccc(C(=O)N[C@H]4C[C@@H](O)C(NCCNCCO)NC(=O)C5[C@@H](O)[C@@H](C)CN5C(=O)C([C@@H](C)O)NC(=O)C([C@H](O)[C@@H](O)c5ccc(O)cc5)NC(=O)C5C[C@@H](O)CC5C(=O)C([C@@H](C)O)NC4=O)cc3)cc2)cc1 (stereo partly drawn) [compound 18],CI,"[1]; 1.4 mg/kg intravenous slow bolus, mean ± SEM, n = 4 beagle dogs",0.377 ± 0.018 mL/min/kg
same,half-life,"[1]; plasma, 1.4 mg/kg intravenous slow bolus, mean ± SEM, n = 4 beagle dogs, read-out: T ½ (converted)",21 ± 1.16 h
same,Vd,"[1]; plasma, 1.4 mg/kg intravenous slow bolus, mean ± SEM, n = 4 beagle dogs, read-out: Vz",0.687 ± 0.0584 L/kg
same,log reduction at 0.5 mg/kg,"C. albicans R303; Fourth run, IP 0.5 mg/kg",2.56
same,log reduction at 1.5 mg/kg,"C. albicans R303; Fourth run, IP 1.5 mg/kg",3.95
same,Mean log10 CFU/kidneys (±SEM),"C. albicans R303; Fourth run, IP 0.5 mg/kg",2.54 ± 0.17 log10 CFU/kidneys
same,Mean log10 CFU/kidneys (±SEM),"C. albicans R303; Fourth run, IP 1.5 mg/kg",1.15 ± 0.09 log10 CFU/kidneys
same,overall performance in reducing C. albicans CFUs in the kidneys of the mice,C. albicans R303,performed strongly
